Converted amounts (≈) assume the structure as drawn. Where two headings read alike, the source gives them in different places.
Legend:
[1] = system: Candida albicans CCM 8320 (ATCC 24433); experiment: Antifungal microdilution broth (EUCAST); settings: Candida albicans, 24 h, read-out: MIC CA
HepG2 cells = experiment: HepG2 cytotoxicity screening (CellTiter 96); format: cell-based, human; settings: for IC50: Homo sapiens, HepG2, 24 h, 24 h incubation, CellTiter 96, * above highest tested concentration, ** limited by insolubility in medium; for SI: SI = IC50 (µM) HepG2 / MICH37Ra (µM)
[2] = system: Staphylococcus aureus subsp. aureus (MRSA) CCM 4750 (ATCC 43300); experiment: Antibacterial microdilution broth (EUCAST); format: cell-based; settings: Staphylococcus aureus; 24h incubation; read-out: MIC MRSA
[3] = system: M. kansasii DSM 44162 (ATCC 12478); experiment: Antimycobacterial MIC, microdilution broth / resazurin; format: cell-based; settings: Mycobacterium kansasii, read-out: MIC M. kansasii
[4] = system: M. avium DSM 44156 (ATCC 25291); experiment: as above; format: cell-based, Mycobacterium avium; settings: Mycobacterium avium; resazurin after 96 h; read-out: MIC M. avium
[5] = system: Lichtheimia corymbifera CCM 8077; experiment: Antifungal microdilution broth (EUCAST); settings: Lichtheimia corymbifera, CCM8077, 24 h, read-out: MIC LC
[6] = system: Trichophyton interdigitale CCM 8377 (ATCC 9533); experiment: Antifungal microdilution broth (EUCAST); settings: Trichophyton interdigitale, 72 h, read-out: MIC TI
[7] = system: Mycobacterium tuberculosis H37Ra ITM-M006710 (ATCC 9431); experiment: Antimycobacterial MIC, microdilution broth / Alamar Blue (resazurin); format: cell-based; settings: for MIC: Mycobacterium tuberculosis
[8] = RP-UHPLC lipophilicity parameter log k’w; format: physicochemical; settings: for log k’w: RP-UHPLC, acetonitrile/water, log k extrapolated to 0% acetonitrile; for logkw: experimental lipophilicity parameter
Description: Lipophilicity and water solubility of the drug candidates are important parameters as they are often directly related to their ADME properties in the organism. Lipophilicity is usually expressed as the logarithm of the partition coefficient in n-octanol/water (log P). Due to its laborious determination, especially in the HTS screening, other experimental methods such as RP-HPLC log k’w or purely computational approaches such as Clog P were proposed and have been established as reasonable estimators of true lipophilicity. To investigate the changes in lipophilicity upon introduction of oxazole in the title compounds, we determined the log k’w of all derivatives and compared respective values among the pairs.
The log k of the synthesized compounds was measured using the same instrument (single measurement per concentration), software, and column as was used in the purity evaluation. Working solutions were diluted as described above for purity determination. The log k parameter was calculated after the UHPLC measurements using isocratic mode with mobile phase acetonitrile (B)/water (A) in a set of concentrations of 40, 45, 50% and 20, 30, 40% B for subtype I and subtype II, respectively.

[9] = system: Aspergillus fumigatus ATCC 204305; experiment: Antifungal microdilution broth (EUCAST); settings: Aspergillus fumigatus, ATCC204305, 24 h, read-out: MIC AF
[10] = system: Candida tropicalis CCM 8264 (ATCC 750); experiment: Antifungal microdilution broth (EUCAST); settings: Candida tropicalis, 24 h, read-out: MIC CT
[11] = system: Candida krusei CCM 8271 (ATCC 6258); experiment: Antifungal microdilution broth (EUCAST); settings: Pichia kudriavzevii, 24 h, read-out: MIC CK
[12] = system: Aspergillus flavus CCM 8363; experiment: Antifungal microdilution broth (EUCAST); settings: Aspergillus flavus, CCM8363, 24 h, read-out: MIC AFla
[13] = system: Pseudomonas aeruginosa CCM 3955 (ATCC 27853); experiment: Antibacterial microdilution broth (EUCAST); format: cell-based; settings: Pseudomonas aeruginosa; 72h incubation; read-out: MIC PA
[14] = system: Enterococcus faecalis CCM 4224 (ATCC 29212); experiment: Antibacterial microdilution broth (EUCAST); format: cell-based; settings: Enterococcus faecalis; 24h incubation; read-out: MIC EF
[15] = system: M. aurum DSM 43999 (ATCC 23366); experiment: Antimycobacterial MIC, microdilution broth / resazurin; format: cell-based; settings: Mycolicibacterium aurum; resazurin after 72 h; read-out: MIC M. aurum
[16] = system: Staphylococcus epidermidis CCM 4418 (ATCC 12228); experiment: Antibacterial microdilution broth (EUCAST); format: cell-based; settings: Staphylococcus epidermidis; 24h incubation; read-out: MIC SE
[17] = system: Candida parapsilosis CCM 8260 (ATCC 22019); experiment: Antifungal microdilution broth (EUCAST); settings: Lodderomyces parapsilosis, 24 h, read-out: MIC CP
[18] = system: Acinetobacter baumannii DSM 30007 (ATCC 19606); experiment: Antibacterial microdilution broth (EUCAST); format: cell-based; settings: Acinetobacter baumannii; 24h incubation; read-out: MIC AB
[19] = system: Escherichia coli CCM 3954 (ATCC 25922); experiment: Antibacterial microdilution broth (EUCAST); format: cell-based; settings: Escherichia coli; 24h incubation; read-out: MIC EC
[20] = system: M. smegmatis DSM 43465 (ATCC 607); experiment: Antimycobacterial MIC, microdilution broth / resazurin; format: cell-based; settings: Mycolicibacterium smegmatis; resazurin after 48 h; read-out: MIC M. smegmatis
[21] = system: Staphylococcus aureus subsp. aureus CCM 4223 (ATCC 29213); experiment: Antibacterial microdilution broth (EUCAST); format: cell-based; settings: Staphylococcus aureus; 24h incubation; read-out: MIC SA
[22] = 120 h, Middlebrook 7H9, resazurin after 120 h, read-out: Mtb H37Ra MIC
[23] = recalculated from µg/mL, read-out: MICH37Ra
[24] = Middlebrook 7H9, resazurin after 120 h

Row | SMILES | MIC [1] | IC50 (HepG2 cells) | MIC [2] | MIC [4] | MIC [5] | MIC [6] | MIC [7, 22] | log k’w [8] | MIC [9] | melting point | MIC [10] | MIC [11] | MIC [12] | MIC [13] | MIC [14] | MIC [15] | MIC [16] | MIC [17] | MIC [18] | MIC [19] | other results
1 | O=C(Nc1nc(-c2ccccc2)co1)c1cnccn1 [Compound 17b] | > 500 µM | > 1000 µM | > 500 µM | ≥ 500 µg/mL | > 500 µM | > 500 µM | 15.6 µg/mL | 1.306 | > 500 µM | 140 to 142 °C | > 500 µM | > 500 µM | > 500 µM | > 500 µM | > 500 µM | 125 µg/mL (≈ 469 µM) | > 500 µM | > 500 µM | > 500 µM | > 500 µM | MIC ([3]; 96 h): 15.6 µg/mL (≈ 58.7 µM); logkw [8]: 1.306; MIC [20]: ≥ 500 µg/mL; MIC [21]: > 500 µM
2 | Cc1cncc(C(=O)Nc2ncco2)c1 [Compound 4b] | > 500 µM | > 1000 µM | 500 µM (≈ 102 µg/mL) | 125 µg/mL (≈ 615 µM) | > 500 µM | > 500 µM | 7.81 µg/mL | 0.888 | > 500 µM | 171 to 175 °C | > 500 µM | > 500 µM | > 500 µM | > 500 µM | > 500 µM | 31.2 µg/mL (≈ 154 µM) | 500 µM (≈ 102 µg/mL) | > 500 µM | 500 µM (≈ 102 µg/mL) | > 500 µM | SI (HepG2 cells): >26.0; MIC ([3]; resazurin after 96 h): 62.5 µg/mL (≈ 308 µM); MIC [7, 23]: 38.4 µM; logkw [8]: 0.8881; MIC [20]: ≥ 500 µg/mL; MIC [21]: 500 µM (≈ 102 µg/mL)
3 | O=C(Nc1nccs1)c1ccncc1 [Compound 3a] | > 500 µM | > 1000 µM | > 500 µM | ≥ 500 µg/mL | > 500 µM | > 500 µM | 250 µg/mL | 1.306 | > 500 µM | 194 to 195 °C | > 500 µM | > 500 µM | > 500 µM | > 500 µM | > 500 µM | ≥ 500 µg/mL | > 500 µM | > 500 µM | > 500 µM | > 500 µM | MIC ([3]; resazurin after 96 h): 250 µg/mL (≈ 1220 µM); logkw [8]: 1.306; MIC [20]: ≥ 500 µg/mL; MIC [21]: > 500 µM
4 | O=C(Nc1nc(-c2ccccc2)co1)c1ccccc1 [Compound 20b] | 500 µM (≈ 132 µg/mL) | 330 µM | 500 µM (≈ 132 µg/mL) | 31.2 µg/mL (≈ 118 µM) | 500 µM (≈ 132 µg/mL) | 250 µM (≈ 66.1 µg/mL) | 62.5 µg/mL | 2.090 | 500 µM (≈ 132 µg/mL) | 143 to 145 °C | 500 µM (≈ 132 µg/mL) | 500 µM (≈ 132 µg/mL) | 500 µM (≈ 132 µg/mL) | > 500 µM | > 500 µM | 31.2 µg/mL (≈ 118 µM) | 250 µM (≈ 66.1 µg/mL) | 500 µM (≈ 132 µg/mL) | 500 µM (≈ 132 µg/mL) | > 500 µM | MIC ([3]; resazurin after 96 h): 31.2 µg/mL (≈ 118 µM); MIC [20]: 125 µg/mL (≈ 473 µM); MIC [21]: 250 µM (≈ 66.1 µg/mL)
5 | O=C(Nc1nccs1)c1cnc2ccccc2n1 [Compound 10a] | > 500 µM | > 50 µM | > 500 µM | ≥ 250 µg/mL | > 500 µM | > 500 µM | ≥ 250 µg/mL | 2.530 | > 500 µM | 251.4 °C | > 500 µM | > 500 µM | > 500 µM | > 500 µM | > 500 µM | ≥ 250 µg/mL | > 500 µM | > 500 µM | > 500 µM | > 500 µM | MIC ([3]; resazurin after 96 h): 7.81 µg/mL (≈ 30.5 µM); logkw [8]: 2.53; MIC [20]: ≥ 250 µg/mL; MIC [21]: > 500 µM
6 | Cc1cc(C(=O)Nc2nccs2)cc(Cl)n1 [Compound 7a] | > 125 µM | > 250 µM | > 500 µM | ≥ 500 µg/mL | > 125 µM | > 125 µM | ≥ 500 µg/mL | 2.319 | > 125 µM | 198.6 °C | > 125 µM | > 125 µM | > 125 µM | > 500 µM | > 500 µM | ≥ 500 µg/mL | > 500 µM | > 125 µM | > 500 µM | > 500 µM | MIC ([3]; resazurin after 96 h): ≥ 500 µg/mL; logkw [8]: 2.319; MIC [20]: ≥ 500 µg/mL; MIC [21]: > 500 µM
7 | O=C(Nc1nc(-c2ccccc2)co1)c1ccccn1 [Compound 11b] | 500 µM (≈ 133 µg/mL) | 883 µM | 500 µM (≈ 133 µg/mL) | 31.2 µg/mL (≈ 118 µM) | 125 µM (≈ 33.2 µg/mL) | 62.5 µM (≈ 16.6 µg/mL) | 3.91 to 7.81 µg/mL | 2.038 | 500 µM (≈ 133 µg/mL) | 107 to 109 °C | 500 µM (≈ 133 µg/mL) | 500 µM (≈ 133 µg/mL) | 500 µM (≈ 133 µg/mL) | > 500 µM | > 500 µM | 31.2 µg/mL (≈ 118 µM) | 125 µM (≈ 33.2 µg/mL) | 500 µM (≈ 133 µg/mL) | > 500 µM | > 500 µM | SI (HepG2 cells): >67.8; MIC ([3]; 96 h): 3.91 µg/mL (≈ 14.7 µM); Mtb H37Ra MIC [7, 24]: 3.91 µg/mL; MIC ([7]; read-out: MICH37Ra, recalculated from µg/mL): 14.7 µM; logkw [8]: 2.038; MIC [20]: 125 µg/mL (≈ 471 µM); MIC [21]: 500 µM (≈ 133 µg/mL)
8 | O=C(Nc1nc(-c2ccccc2)cs1)c1ccccn1 [Compound 11a] | > 500 µM | > 100 µM | > 500 µM | ≥ 500 µg/mL | > 500 µM | > 500 µM | 3.91 to 7.81 µg/mL | 3.102 | > 500 µM | 128 to 130 °C | > 500 µM | > 500 µM | > 500 µM | > 500 µM | > 500 µM | ≥ 500 µg/mL | > 500 µM | > 500 µM | > 500 µM | > 500 µM | SI (HepG2 cells): >7.2; MIC ([3]; 96 h): 3.91 µg/mL (≈ 13.9 µM); Mtb H37Ra MIC [7, 24]: 3.91 µg/mL; MIC [7, 23]: 13.9 µM; logkw [8]: 3.102; MIC [20]: ≥ 500 µg/mL; MIC [21]: > 500 µM

Source: publication PMC9143880, “Improving Antimicrobial Activity and Physico-Chemical Properties by Isosteric Replacement of 2-Aminothiazole with 2-Aminooxazole” (Pharmaceuticals, 2022)
